This passage reports melting point results from US7196090B2, “Kinase inhibitors” (Warner-Lambert Company, priority 2002, dated 2007).

The melting point is the temperature, or range, at which the solid turns liquid. For the compound `CCN1C(=O)N(c2c(F)c(OC)cc(OC)c2F)Cc2cnc(NCCCN(CCO)CCO)nc21` [Example 19, 7-{3-[Bis-(2-hydroxy-ethyl)-amino]-propylamino}-3-(2,6-difluoro-3,5-dimethoxy-phenyl)-1-ethyl-3,4-dihydro-1H-pyrimido[4,5-d]pyrimidin-2-one], the melting point was in the range of 128 to 129 °C.

In turn, `CCN(CC)CCCCNc1ncc2c(n1)N(C1CCCC1)C(=O)N(c1c(F)c(OC)cc(OC)c1F)C2` [Example 2, 1-Cyclopentyl-7-(4-diethylamino-butylamino)-3-(2,6-difluoro-3,5-dimethoxy-phenyl)-3,4-dihydro-1H-pyrimido[4,5-d]pyrimidin-2-one] displayed a melting point of 132 to 133 °C.

As for `CNc1ncc2c(n1)N(C1CCNCC1)C(=O)N(c1c(F)c(OC)cc(OC)c1F)C2.O=C(O)C(F)(F)F`, the melting point was in the range of 135 to 140 °C.

Compound `CCN1C(=O)N(c2c(F)c(OC)cc(OC)c2F)Cc2cnc(NC(CO)CO)nc21` [Example 11, 3-(2,6-Difluoro-3,5-dimethoxy-phenyl)-1-ethyl-7-(2-hydroxy-1-hydroxymethyl-ethylamino)-3,4-dihydro-1H-pyrimido[4,5-d]pyrimidin-2-one] gave a melting point of 168 to 172 °C.

Take `COc1cc(OC)c(F)c(N2Cc3cnc(NCC(O)C(O)CN)nc3N(C3CCCC3)C2=O)c1F` (stereo not drawn) [Example 15, 7-(4-Amino-2,3-dihydroxy-butylamino)-1-cyclopentyl-3-(2,6-difluoro-3,5-dimethoxy-phenyl)-3,4-dihydro-1H-pyrimido[4,5-d]pyrimidin-2-one]: the melting point is 158 °C (dec.).

With `CNc1ncc2c(n1)N(C1CCC(C(=O)O)CC1)C(=O)N(c1c(F)c(OC)cc(OC)c1F)C2` (stereo not drawn) [Example 23, 4-[3-(2,6-Difluoro-3,5-dimethoxy-phenyl)-7-methylamino-2-oxo-3,4-dihydro-2H-pyrimido[4,5-d]pyrimidin-1-yl]-cyclohexanecarboxylic Acid], the melting point was 148 °C.

In turn, `COc1cc(OC)c(F)c(N2Cc3cnc(NC[C@@H](O)CO)nc3N(C3CCCC3)C2=O)c1` [Example 33, (R)-1-Cyclopentyl-7-(2,3-dihydroxy-propylamino)-3-(2-fluoro-3,5-dimethoxy-phenyl)-3,4-dihydro-1H-pyrimido[4,5-d]pyrimidin-2-one] yielded a melting point of 89 to 91 °C.

For `COc1cc(OC)c(F)c(N2Cc3cnc(NC4CCC(O)CC4)nc3N(C3CCCC3)C2=O)c1F` (stereo not drawn) [Example 5, 1-Cyclopentyl-3-(2,6-difluoro-3,5-dimethoxy-phenyl)-7-(4-hydroxy-cyclohexylamino)-3,4-dihydro-1H-pyrimido[4,5-d]pyrimidin-2-one], the melting point is 208 to 212 °C (dec.).

Turning to `CCN1C(=O)N(c2cc(OC)cc(OC)c2F)Cc2cnc(NCCCCO)nc21` [Example 26, 1-Ethyl-3-(2-fluoro-3,5-dimethoxy-phenyl)-7-(4-hydroxy-butylamino)-3,4-dihydro-1H-pyrimido[4,5-d]pyrimidin-2-one], the melting point lay within 129 to 131 °C.

`COc1cc(OC)c(F)c(N2Cc3cnc(NC(CO)CO)nc3N(C3CCCC3)C2=O)c1F` [Example 6, 1-Cyclopentyl-3-(2,6-difluoro-3,5-dimethoxy-phenyl)-7-(2-hydroxy-1-hydroxymethyl-ethylamino)-3,4-dihydro-1H-pyrimido[4,5-d]pyrimidin-2-one] returned a melting point of 172 to 174 °C.

Compound `CCN1C(=O)N(c2c(F)c(OC)cc(OC)c2F)Cc2cnc(NCC(O)CO)nc21` (stereo not drawn) [Example 31, 3-(2,6-Difluoro-3,5-dimethoxy-phenyl)-7-(2,3-dihydroxy-propylamino)-1-ethyl-3,4-dihydro-1H-pyrimido[4,5-d]pyrimidin-2-one] displayed a melting point of 148 to 152 °C.

`CCN(CC)CCCCNc1ncc2c(n1)N(CC)C(=O)N(c1c(F)c(OC)cc(OC)c1F)C2` [Example 10, 7-(4-Diethylamino-butylamino)-3-(2,6-difluoro-3,5-dimethoxy-phenyl)-1-ethyl-3,4-dihydro-1H-pyrimido[4,5-d]pyrimidin-2-one] returned a melting point of 140 to 141 °C.

As to `COc1cc(OC)c(F)c(N2Cc3cnc(NCC(O)CN)nc3N(C3CCCC3)C2=O)c1F` (stereo not drawn) [Example 7, 7-(3-Amino-2-hydroxy-propylamino)-1-cyclopentyl-3-(2,6-difluoro-3,5-dimethoxy-phenyl)-3,4-dihydro-1H-pyrimido[4,5-d]pyrimidin-2-one], the melting point is 167 °C (dec.).

`COc1cc(OC)c(F)c(N2Cc3cnc(NCCOCCO)nc3N(C3CCCC3)C2=O)c1F` [Example 8, 1-Cyclopentyl-3-(2,6-difluoro-3,5-dimethoxy-phenyl)-7-[2-(2-hydroxy-ethoxy)-ethylamino]-3,4-dihydro-1H-pyrimido[4,5-d]pyrimidin-2-one]: the melting point fell in the range of 160 to 163 °C.

Turning to `CCN1C(=O)N(c2c(F)c(OC)cc(OC)c2F)Cc2cnc(NCC(O)C(O)CN)nc21` (stereo not drawn) [Example 18, 7-(4-Amino-2,3-dihydroxy-butylamino)-3-(2,6-difluoro-3,5-dimethoxy-phenyl)-1-ethyl-3,4-dihydro-1H-pyrimido[4,5-d]pyrimidin-2-one], the melting point was 115 °C (dec.).

In turn, `CCOc1ccc(F)c(N2Cc3cnc(NCCCCN(CC)CC)nc3N(C3CCCC3)C2=O)c1F` [Example 32, 1-Cyclopentyl-7-(4-diethylamino-butylamino)-3-(3-ethoxy-2,6-difluoro-phenyl)-3,4-dihydro-1H-pyrimido[4,5-d]pyrimidin-2-one] showed a melting point of 129 to 130 °C.

`CCN(CC)CCCCNc1ncc2c(n1)N(C1CC1)C(=O)N(c1c(F)c(OC)cc(OC)c1F)C2` [Example 9, 1-Cyclopropyl-7-(4-diethylamino-butylamino)-3-(2,6-difluoro-3,5-dimethoxy-phenyl)-3,4-dihydro-1H-pyrimido[4,5-d]pyrimidin-2-one] came in with a melting point of 139 to 141 °C.

Regarding `COc1cc(OC)c(F)c(N2Cc3cnc(NC(CO)CO)nc3N(C3CCCC3)C2=O)c1` [Example 25, 1-Cyclopentyl-3-(2-fluoro-3,5-dimethoxy-phenyl)-7-(2-hydroxy-1-hydroxymethyl-ethylamino)-3,4-dihydro-1H-pyrimido[4,5-d]pyrimidin-2-one], the melting point fell in the range of 194 to 195 °C.

Regarding `COc1cc(OC)c(F)c(N2Cc3cnc(NC[C@H](O)[C@@H](O)CO)nc3N(C3CCCC3)C2=O)c1` [Example 16, 1-Cyclopentyl-3-(2-fluoro-3,5-dimethoxy-phenyl)-7-([S,S]-2,3,4-trihydroxy-butylamino)-3,4-dihydro-1H-pyrimido[4,5-d]pyrimidin-2-one], the melting point was 86 to 88 °C.

Regarding `COc1cc(OC)c(F)c(N2Cc3cnc(N[C@H]4CC[C@H](O)CC4)nc3N(C3CCCC3)C2=O)c1` [Example 35, 1-Cyclopentyl-3-(2-fluoro-3,5-dimethoxy-phenyl)-7-(trans-4-hydroxy-cyclohexylamino)-3,4-dihydro-1H-pyrimido[4,5-d]pyrimidin-2-one], the melting point is 108 to 110 °C.

As to `COc1cc(OC)c(F)c(N2Cc3cnc(NCC(O)CO)nc3N(C3CCCC3)C2=O)c1F` (stereo not drawn) [Example 14, 1-Cyclopentyl-3-(2,6-difluoro-3,5-dimethoxy-phenyl)-7-(2,3-dihydroxy-propylamino)-3,4-dihydro-1H-pyrimido[4,5-d]pyrimidin-2-one], the melting point is 118 to 122 °C.

Take `COc1cc(OC)c(F)c(N2Cc3cnc(NC[C@H](O)CO)nc3N(C3CCCC3)C2=O)c1` [Example 27, (S)-1-Cyclopentyl-7-(2,3-dihydroxy-propylamino)-3-(2-fluoro-3,5-dimethoxy-phenyl)-3,4-dihydro-1H-pyrimido[4,5-d]pyrimidin-2-one]: the melting point fell in the range of 92 to 94 °C.

On to `CCN1C(=O)N(c2cc(OC)cc(OC)c2F)Cc2cnc(NCCOCCO)nc21` [Example 34, 1-Ethyl-3-(2-fluoro-3,5-dimethoxy-phenyl)-7-[2-(2-hydroxy-ethoxy)-ethylamino]-3,4-dihydro-1H-pyrimido[4,5-d]pyrimidin-2-one], for which the melting point fell in the range of 143 to 146 °C.

As to `COc1cc(OC)c(F)c(N2Cc3cnc(NCC(O)CO)nc3N(C3CCCC3)C2=O)c1F` (stereo not drawn) [Example 20, 1-Cyclopentyl-3-(2,6-difluoro-3,5-dimethoxy-phenyl)-7-(2,3-dihydroxy-propylamino)-3,4-dihydro-1H-pyrimido[4,5-d]pyrimidin-2-one], the melting point was 179 to 182 °C.

Take `CCN1C(=O)N(c2c(F)c(OC)cc(OC)c2F)Cc2cnc(NCCOCCO)nc21` [Example 17, 3-(2,6-Difluoro-3,5-dimethoxy-phenyl)-1-ethyl-7-[2-(2-hydroxy-ethoxy)-ethylamino]-3,4-dihydro-1H-pyrimido[4,5-d]pyrimidin-2-one]: the melting point lay in the range of 159 to 160 °C.

Take `COc1cc(OC)c(F)c(N2Cc3cnc(NCC(O)C(C)O)nc3N(C3CCCC3)C2=O)c1F` (stereo not drawn) [Example 13, 1-Cyclopentyl-3-(2,6-difluoro-3,5-dimethoxy-phenyl)-7-(2,3-dihydroxy-butylamino)-3,4-dihydro-1H-pyrimido[4,5-d]pyrimidin-2-one]: the melting point was 195 to 196 °C (dec.).

Turning to `COc1cc(OC)c(F)c(N2Cc3cnc(NC[C@H](O)[C@@H](O)CO)nc3N(C3CCCC3)C2=O)c1F` [Example 4, (S,S)-1-Cyclopentyl-3-(2,6-difluoro-3,5-dimethoxy-phenyl)-7-(2,3,4-trihydroxy-butylamino)-3,4-dihydro-1H-pyrimido[4,5-d]pyrimidin-2-one], the melting point was 160 °C (dec.).

Compound `CCN1C(=O)N(c2c(F)c(OC)cc(OC)c2F)Cc2cnc(NCC(O)C(C)O)nc21` (stereo not drawn) [Example 21, 3-(2,6-Difluoro-3,5-dimethoxy-phenyl)-7-(2,3-dihydroxy-butylamino)-1-ethyl-3,4-dihydro-1H-pyrimido[4,5-d]pyrimidin-2-one] returned a melting point of 171 to 173 °C.

`COc1cc(OC)c(F)c(N2Cc3cnc(N)nc3N(C3CCNCC3)C2=O)c1F.O=C(O)C(F)(F)F`: the melting point is 200 to 220 °C (dec.).

Take `CCN1C(=O)N(c2c(F)c(OC)cc(OC)c2F)Cc2cnc(NC3CCC(O)CC3)nc21` (stereo not drawn) [Example 12, 3-(2,6-Difluoro-3,5-dimethoxy-phenyl)-1-ethyl-7-(4-hydroxy-cyclohexylamino)-3,4-dihydro-1H-pyrimido[4,5-d]pyrimidin-2-one]: the melting point fell in the range of 198 to 202 °C.
